Measured values published in publication doi:10.1101/2025.05.02.651913 (bioRxiv, 2025).

The compounds below were run on MPXV strain hMPXV/USA/MA001/2022 (Lineage B.1, Clade IIb).
Format: cell-based, Mpox virus (MPXV)

Compound | Duplicate of Duplicate of Hits: No CPE
C=CC(=O)N1CCC[C@H](n2c(=O)n(-c3ccc(Oc4ccccc4)cc3)c3c(N)ncnc32)C1 [MC-ONO-4059 (analog), ONO-4059 (analog)] | 1
Cc1c(CN2CCN(S(C)(=O)=O)CC2)sc2c(N3CCOCC3)nc(-c3cnc(N)nc3)nc12 [MC-GNE-477, GNE-477] | 1
CCOc1cc2ncc(C#N)c(Nc3ccc(OCc4ccccn4)c(Cl)c3)c2cc1NC(=O)/C=C/CN(C)C.O=C(O)/C=C\C(=O)O [MC-Neratinib (maleate), Neratinib (maleate)] | 1
COc1ccc(N(C(=O)Oc2cc(C(=O)Nc3cccc(C(F)(F)F)c3)ccc2C)c2ccnc(Nc3ccc(N4CCN(C)CC4)cc3)n2)c(OC)c1 [MC-WH-4-025, WH-4-025] | 1
COc1ccc(-c2cc3c(C)nc(N)nc3n([C@H]3CC[C@H](OCCO)CC3)c2=O)cn1 [NKIL-PF-04691502, PF-04691502] | 1
COc1cc2ncnc(Nc3cccc(Br)c3)c2cc1OC [MC-PD153035, PD153035] | 1
C=CC(=O)Nc1cc2c(Nc3ccc(F)c(Cl)c3)ncnc2cc1OC [MC-PF-6274484, PF-6274484] | 1
CN(C)C/C=C/C(=O)Nc1cc2c(Nc3ccc(F)c(Cl)c3)ncnc2cc1OC(F)F [MC-Mefatinib (free base), Mefatinib (free base)] | 1
Mutant EGFR inhibitor [MC-Mutant EGFR inhibitor] | 1
O=C1Nc2ccc3ncsc3c2/C1=C/c1cnc[nH]1 [MC-PKR-IN-C16, PKR-IN-C16] | 1
JAK-IN-23 [MC-JAK-IN-23] | 1
O=C(NC[C@H](O)CO)c1ccncc1Nc1ccc(I)cc1F [NKIL-Pimasertib (AS-703026), Pimasertib] | 1
C=CC(=O)Nc1cccc(Oc2nc(Nc3ccc(N4CCN(C)CC4)c(F)c3)nc3[nH]ccc23)c1.O=C(O)/C=C\C(=O)O [MC-Avitinib (maleate), Avitinib (maleate)] | 1
JNK-IN-7 [MC-JNK-IN-7] | 1
O=C(NOC[C@H](O)CO)c1ccc(F)c(F)c1Nc1ccc(I)cc1F [LOPAC-PD 0325901, Mirdametinib] | 1
CNc1ncc2cc(-c3cc(NC(=O)NCCC(C)(C)C)c(F)cc3C)c(C)nc2n1 [MC-LY3009120, LY3009120] | 1
Cc1nc2c(-c3cnc(N)nc3)nc(N3CCOCC3)nc2n1C(C)C [NKIL-VS-5584 (SB2343), VS-5584] | 1
CNC(=O)c1ccccc1Nc1cc(Nc2ccc(N3CCN(CC(=O)N[C@H](C(=O)N4C[C@H](O)C[C@H]4C(=O)N[C@@H](C)c4ccc(-c5scnc5C)cc4)C(C)(C)C)CC3)cc2OC)ncc1C(F)(F)F [MC-GSK215, GSK215] | 1
C#Cc1cccc(Nc2ncnc3cc(OCCOC)c(OCCOC)cc23)c1.Cl [MC-Erlotinib (Hydrochloride), Erlotinib (Hydrochloride)] | 1
C=CC(=O)Nc1cc(Nc2nccc(-c3cn(C)c4ccccc34)n2)c(OC)cc1OCCN(C)C [MC-Rezivertinib, Rezivertinib] | 1

Compound | Duplicate of Duplicate of Hits: No CPE
C=CC(=O)N1C[C@H](COc2nc(Nc3cnn(C)c3)nc3[nH]cc(Cl)c23)[C@@H](OC)C1 [MC-PF-06459988, PF-06459988] | 1
C=CC(=O)N1CCC[C@@H](n2nc(-c3ccc(Oc4ccccc4)cc3)c(C(N)=O)c2N)C1 [MC-Btk inhibitor 2, Btk inhibitor 2] | 1
Gilmelisib [MC-Gilmelisib] | 1
C=CC(=O)Nc1cc(Nc2nccc(-c3cn(C4CC4)c4ccccc34)n2)c(OC)cc1N(C)CCN(C)C.CS(=O)(=O)O [MC-Almonertinib (mesylate), Almonertinib (mesylate)] | 1
COc1cc2ncnc(Nc3ccc(O)c(Br)c3)c2cc1OC [NKIL-WHI-P154, WHI-P154] | 1
C=CC(=O)Nc1cc(Nc2nccc(-n3cc(CN(C)C)c(-c4ccccc4)n3)n2)c(OC)cc1N1CCOCC1 [MC-Lazertinib, Lazertinib] | 1
C=CC(=O)Nc1cc(Nc2nccc(-c3cn(C)c4ccccc34)n2)c(OC)cc1N(C)CCNC.CS(=O)(=O)O.CS(=O)(=O)O.CS(=O)(=O)O [MC-AZ7550 Mesylate, AZ7550 Mesylate] | 1
Cn1nccc1Nc1nccc(-c2cc3c(s2)C(C)(C)N(CCN2CCOCC2)C3=O)n1 [MC-Temuterkib, Temuterkib] | 1
COCc1c(-c2ccc(NC(=O)Nc3cc(C(F)(F)F)ccc3F)c(F)c2)c2c(N)ncnn2c1CN1CCOCC1 [MC-EOC317, EOC317] | 1
O=C(NOCC(O)CO)c1cc(Br)c(F)c(F)c1Nc1ccc(I)cc1F (centres unmarked) [NKIL-PD318088, PD318088] | 1
Cc1c(=O)n(C)c(Nc2ccc(I)cc2F)c2c(=O)n(C3CC3)c(=O)n(-c3cccc(N)c3)c12 [MC-GSK1790627, GSK1790627] | 1
Cc1ccc(C(=O)Nc2ccc(CN3CCN(C)CC3)c(C(F)(F)F)c2)cc1C#Cc1cnc2cccnn12.Cl [MC-Ponatinib (hydrochloride), Ponatinib (hydrochloride)] | 1
C=CC(=O)Nc1cc(Nc2nccc(-c3c[nH]c4ccccc34)n2)c(OC)cc1N(C)CCN(C)C [MC-AZ-5104, AZ-5104] | 1
N[C@H]1CC[C@H](Nc2nc(Nc3ccc(C(=O)N4CCCCC4)cc3)c3ncn(-c4cccc(F)c4)c3n2)CC1 [MC-Purfalcamine, Purfalcamine] | 1
CCN1CCN(Cc2ccc(-c3cc4c(N[C@H](C)c5ccccc5)ncnc4[nH]3)cc2)CC1 [NKIL-AEE788 (NVP-AEE788), AEE788] | 1
O=C(NOCCO)c1cc(CN2OCCCC2=O)c(F)c(F)c1Nc1ccc(I)cc1F [MC-RO4987655, RO4987655] | 1
C=CC(=O)Nc1cc(Nc2nccc(-c3cn(C4CC4)c4ccccc34)n2)c(OC)cc1N(C)CCN(C)C [MC-Almonertinib, Almonertinib] | 1
C=CC(=O)Nc1cc(C)ccc1Nc1nc(Nc2cc(OC)ncc2C)ncc1C(F)(F)F [MC-CC-90003, CC-90003] | 1
(S)-Sunvozertinib [MC-(S)-Sunvozertinib] | 1
N[C@@H]1c2ccccc2OC12CCN(c1cnc3c(N4CCCc5ncccc54)n[nH]c3n1)CC2 [MC-Migoprotafib, Migoprotafib] | 1

Compound | Duplicate of Duplicate of Hits: No CPE
COc1cc2ncnc(Nc3ccc(F)c(Cl)c3)c2cc1OCCCN1C[C@@H]2OCCO[C@@H]2C1.CS(=O)(=O)O.CS(=O)(=O)O.O [MC-Larotinib (mesylate hydrate), Larotinib (mesylate hydrate)] | 1
C=CC(=O)N1CCC[C@@H](n2c(=O)n(-c3ccc(Oc4ccccc4)cc3)c3c(N)nccc32)C1 [MC-Tolebrutinib, Tolebrutinib] | 1
CN1CCN(c2ccc(Nc3ncc4nc(Nc5ccccc5)n([C@@H]5CCN(S(=O)(=O)C6CC6)C5)c4n3)cc2)CC1 [MC-EGFR-IN-11, EGFR-IN-11] | 1
KIRA-7 [MC-KIRA-7] | 1
C=CCn1cc(-c2ccc(NC(=O)Nc3cc(C(C)(C)C)on3)cc2)c2c(N)ncnc21 [MC-FLT3-IN-4, FLT3-IN-4] | 1
COc1cc2ncnc(Nc3cccc(I)c3)c2cc1OC [MC-AG1557, AG1557] | 1
C=CC(=O)Nc1cc(Nc2ncc(C(=O)OC(C)C)c(-c3cn(C)c4ccccc34)n2)c(OC)cc1N(C)CCN(C)C.O=C(O)CCC(=O)O [MC-Mobocertinib (succinate), Mobocertinib (succinate)] | 1
C=CC(=O)Nc1cc2c(Nc3ccc(F)c(Cl)c3)ncnc2cc1OCCCN1CCOCC1 [MC-Canertinib, Canertinib] | 1
C=CC(=O)Nc1cc(Nc2nccc(-c3cn(CC(F)(F)F)c4ccccc34)n2)c(OC)cc1N(C)CCN(C)C [MC-Befotertinib, Befotertinib] | 1
CNC(=O)CN1CCC(Oc2cc3c(Nc4cccc(Cl)c4F)ncnc3cc2OC)CC1 [NKIL-AZD8931 (Sapitinib), Sapitinib] | 1
C=CC(=O)N[C@@H]1CN(c2nc(Nc3cn(C)nc3OC)c3ncn(C)c3n2)C[C@H]1F [MC-Mavelertinib, Mavelertinib] | 1
C=CC(=O)Nc1cc(Nc2ncc(C(=O)OC(C)C)c(-c3cn(C)c4ccccc34)n2)c(OC)cc1N(C)CCN(C)C [MC-Mobocertinib, Mobocertinib] | 1
COc1c(F)cccc1Nc1c(-c2ccncc2OCC(C)(C)OC)[nH]c2c1C(=O)NCC2 [MC-BAY 2476568, BAY 2476568] | 1
O=C(c1ccc(F)c(F)c1Nc1ccc(I)cc1F)N1CC(O)([C@@H]2CCCCN2)C1 [NKIL-Cobimetinib (GDC-0973, RG7420), Cobimetinib] | 1
O=C(Nc1ccc2[nH]nc(-c3ccncc3)c2c1)[C@@H]1CCN(CC(=O)N2CCN(c3ccc(-c4ncccn4)cc3)CC2)C1 [MC-SCH772984, SCH772984] | 1
C=CC(=O)Nc1cccc(Oc2nc(Nc3ccc(N4CCN(C)CC4)c(F)c3)nc3[nH]ccc23)c1 [MC-Avitinib, Avitinib] | 1
COc1cc2c(Nc3ccc(Cl)c(Cl)c3F)ncnc2cc1OC[C@@H]1C[C@@H]2CN(C)C[C@@H]2C1 [MC-Tesevatinib, Tesevatinib] | 1
C#Cc1cccc(Nc2ncnc3cc(OC)c(OCCCN4CCOCC4)cc23)c1 [MC-NRC-2694, NRC-2694] | 1
CN(C)C/C=C/C(=O)Nc1cccc(-c2c(-c3ccccc3)oc3ncnc(N[C@H](CO)c4ccccc4)c23)c1 [MC-DBPR112, DBPR112] | 1
